Measured values reported in patent publication US10829798B2, “DNA-linked enzyme-coupled assays” (THE REGENTS OF THE UNIVERSITY OF CALIFORNIA, priority 2014, dated 2020).

What was measured:
[1] = molecular target: T1, OleD (Streptomyces antibioticus, UniProt Q53685, P55A/R82V/R83E/T84P); experiment: qPCR DLEnCA, cell-free transcription/translation-derived OleD; format: biochemical; conditions: OleD DNA 5 nM, UDP-Glc 2 μM, probe 0.2 nM; for recovery of intact probe DNA: chemical 1 mM, low recovery = substrate glucosylated; for significant loss in protection of the DNA probe: flavone 1 mM
T1 construct: made in house; host or cells: PURExpress In Vitro Protein Synthesis Kit (NEB E6800L), cell-free transcription/translation, linear DNA with T7 promoter
T1 sequence (Q53685 other isoform, or with tags, fused parts or gaps P55A/R82V/R83E/T84P): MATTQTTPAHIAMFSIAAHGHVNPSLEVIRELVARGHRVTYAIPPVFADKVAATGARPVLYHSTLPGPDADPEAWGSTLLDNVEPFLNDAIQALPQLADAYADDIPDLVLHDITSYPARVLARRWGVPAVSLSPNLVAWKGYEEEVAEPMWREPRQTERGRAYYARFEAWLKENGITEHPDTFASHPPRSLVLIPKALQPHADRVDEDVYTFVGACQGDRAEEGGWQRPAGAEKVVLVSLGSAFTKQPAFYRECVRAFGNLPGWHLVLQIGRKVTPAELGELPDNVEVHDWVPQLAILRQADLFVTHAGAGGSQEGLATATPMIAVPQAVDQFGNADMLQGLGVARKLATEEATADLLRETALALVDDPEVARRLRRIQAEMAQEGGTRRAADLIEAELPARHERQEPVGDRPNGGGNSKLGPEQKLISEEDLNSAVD
Description: (§1) FIG. 4A-FIG. 4D. qPCR DLEnCA and substrate specificity studies. A. Chemicals used as substrates in subsequent assays: (i) known substrates of OleD; (ii) flavone library; (iii) known substrates of GT05 (UGT72B1 (Q9M156)) and GT06 (UGT89B1 (AT1 G73880)). B. DNA encoding OleD (5 nM) was incubated in a cell-free transcription/translation system for 3 hours at 37° C., followed by the addition of chemical (1 mM) and UDP-Glc (2 μM). After a subsequent incubation of 3 hours, TbGT and probe (0.2 nM) were added. After probe purification and MfeI digestion, probe integrity was identified using qPCR. Percent recovery of probe is reported (n=8; error bars=standard error). C. DNA encoding OleD (5 nM) was incubated for 3 hours at 37° C. in a cell-free transcription/translation system, followed by the addition of flavone (1 mM) and UDP-Glc (2 μM). After a subsequent incubation of 3 hours, TbGT and probe (0.2 nM) were added. After probe purification and MfeI addition, probe integrity was identified using qPCR. Percent recovery of probe is reported (n=8; error bars=standard error). D. DNA encoding OleD, GT05, or GT06 (5 nM) were incubated for 3 hours at 37° C. in a cell-free transcription/translation system, followed by the addition of chemical (1 mM) and UDP-Glc (2 μM). After a subsequent incubation of 3 hours, TbGT and probe (0.2 nM) were added. After probe purification and MfeI digestion, probe integrity was identified using qPCR. Percent recovery of probe is reported as a heat map (n=8) (specific recovery figures and percent error can be found in FIG. 16). *=p<0.05 vs. no chemical control.
PCR tubes were used for most reactions. All incubations were performed at 37° C. Assays were initiated upon the addition of linear DNA (5 nM final concentration) to 4 μl PURExpress Solution A and 3 μl PURExpress Solution B. Samples were incubated at 37° C. for 3 hours prior to addition of UDP-Glucose and chemical (1 mM final concentration) in DMSO. Samples were incubated for an additional 3 hours prior to addition of 1 unit T4 Phage β-glucosyltransferase containing 0.2 nM probe. Samples were incubated an additional 3 hours before DNA was purified using the Zymo DNA Clean and Concentrator Kit. Samples were digested overnight with MfeI prior to analysis. Concentration of intact DNA probe was identified using the iQ SYBR Green Supermix (1708880) with probe DNA as standards. qPCR was carried out on the Bio-Rad iQ5 Multicolor Real-Time PCR Detection System using primers P13 and P14 with the following temperatures; 94° C. 30 seconds followed by 40 cycles of 94° C. 10 seconds and 55° C. for 30 seconds. All results were compared to uncut probe DNA that had been carried through the process as negative controls (considered full recovery of probe).
The second DLEnCA workflow developed involved qPCR as a final readout (qPCR DLEnCA, FIG. 1—qPCR workflow). A linear fragment of DNA was modified to contain 5-hm-cytosines throughout. To determine a threshold for probe protection under conditions amenable to the qPCR DLEnCA workflow, UDP-Glc was titrated into mixtures of the cell-free transcription/translation system containing 5-hm-cytosine-modified DNA probe (0.2 nM probe DNA containing 0.1 μM modified 5-hm-cytosines) and TbGT. After digestion with the restriction enzyme MfeI, the amount of intact DNA probe was determined using qPCR (FIG. 3C). […] A threshold for protection was identified at a 20:1 molar ratio of UDP-Glc to total 5-hm-cytosine in probe DNA; this UDP-Glc amount was used as the starting concentration of UDP-Glc for all qPCR experiments. To test the feasibility of qPCR DLEnCA, OleD was again tested upon the substrate kaempferol (FIG. 3D), using DNA encoding a promoter and OleD as starting material. As expected, when all components of the assay were present, 27% of intact probe DNA was recovered. […]

[2] = tested on: OleD; conditions: Williams 2007; Choi 2012; Yang 2005; cited from earlier work
[3] = molecular target: T1, OleD; experiment: LCMS analysis of OleD-catalyzed glucosylation in cell-free reactions; format: biochemical; conditions: equal-molar chemical and UDP-glucose, PURExpress, 3 hours at 37° C.
Excerpt: Determination of glucosylation was accomplished by means of an LCMS system consisting of an Agilent Technologies 1200 series HPLC with an Agilent Technologies 6520 Accurate Mass qTOF LC/MS. An Eclipse Plus C18 (4.6 mm×100 mm i.d., 3.5-μm packing, Agilent Technologies) reverse-phase column with a guard Zorbax Eclipse Plus C18 column ([…], 5 μm packing, Agilent Technologies) was used for separating the samples. Water+0.1% Formic Acid and Acetonitrile+0.1% Formic Acid were used as mobile phases at a flow rate of 500 μl/min. The elution gradient water/acetonitrile ratio) was ramped as follows: 98:2 (v/v) (0-2 min), 98:2-5:95 (v/v) linearly (2-17 min), 5:95 (v/v) (17-27 min), and 5:95-98-2 (v/v) (27-28 min). Full scanning mode (50-750 m/z) was used for data acquisition in a positive-ion mode, and the operation parameters were as follows: ESI probe capillary voltage, +3.5 kV with a scan rate of 1.01 scans/second. The nebulizer gas flow rate was 7 L/min. During the analysis two references (121.0509 m/z (C5H4N4) and 922.0098 m/z (C18H18O6N3P3F24)) were continuously measured to allow constant mass correction.
Samples were prepared directly from cell-free reactions. Equal-molar amounts of chemical and UDP-glucose were incubated with DNA encoding the glucosyltransferase of interest or water in PURExpress for 3 hours at 37° C. […]

[4] = molecular target: T2, GT05 (UGT72B1 (Q9M156)) (Arabidopsis thaliana, UniProt Q9M156); experiment: qPCR DLEnCA, cell-free transcription/translation-derived GT05; format: biochemical; conditions: GT05 DNA 5 nM, chemical 1 mM, UDP-Glc 2 μM, probe 0.2 nM; low recovery = substrate glucosylated
T2 construct: made in house; host or cells: PURExpress In Vitro Protein Synthesis Kit (NEB E6800L), cell-free transcription/translation, linear DNA amplified from pET15b construct
T2 sequence (Q9M156 1-480): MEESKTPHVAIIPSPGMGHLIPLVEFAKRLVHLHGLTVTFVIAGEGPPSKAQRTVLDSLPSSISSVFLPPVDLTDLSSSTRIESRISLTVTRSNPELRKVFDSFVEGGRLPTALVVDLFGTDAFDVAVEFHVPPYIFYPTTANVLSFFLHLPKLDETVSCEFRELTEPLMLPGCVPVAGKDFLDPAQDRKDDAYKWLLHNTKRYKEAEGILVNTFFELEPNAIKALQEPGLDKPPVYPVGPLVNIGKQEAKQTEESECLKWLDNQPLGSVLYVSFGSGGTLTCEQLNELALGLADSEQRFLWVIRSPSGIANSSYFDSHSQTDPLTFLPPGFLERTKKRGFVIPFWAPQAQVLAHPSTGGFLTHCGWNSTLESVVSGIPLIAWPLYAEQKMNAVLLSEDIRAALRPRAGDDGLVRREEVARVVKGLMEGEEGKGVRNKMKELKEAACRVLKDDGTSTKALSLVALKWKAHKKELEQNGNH
Description: as §1
PCR tubes were used for most reactions. All incubations were performed at 37° C. Assays were initiated upon the addition of linear DNA (5 nM final concentration) to 4 μl PURExpress Solution A and 3 μl PURExpress Solution B. Samples were incubated at 37° C. for 3 hours prior to addition of UDP-Glucose and chemical (1 mM final concentration) in DMSO. Samples were incubated for an additional 3 hours prior to addition of 1 unit T4 Phage β-glucosyltransferase containing 0.2 nM probe. […]

[5] = molecular target: T3, GT06 (UGT89B1 (AT1G73880)) (Arabidopsis thaliana, UniProt Q9C9B0); experiment: qPCR DLEnCA, cell-free transcription/translation-derived GT06; format: biochemical; conditions: GT06 DNA 5 nM, chemical 1 mM, UDP-Glc 2 μM, probe 0.2 nM; low recovery = substrate glucosylated
T3 sequence (Q9C9B0 1-473): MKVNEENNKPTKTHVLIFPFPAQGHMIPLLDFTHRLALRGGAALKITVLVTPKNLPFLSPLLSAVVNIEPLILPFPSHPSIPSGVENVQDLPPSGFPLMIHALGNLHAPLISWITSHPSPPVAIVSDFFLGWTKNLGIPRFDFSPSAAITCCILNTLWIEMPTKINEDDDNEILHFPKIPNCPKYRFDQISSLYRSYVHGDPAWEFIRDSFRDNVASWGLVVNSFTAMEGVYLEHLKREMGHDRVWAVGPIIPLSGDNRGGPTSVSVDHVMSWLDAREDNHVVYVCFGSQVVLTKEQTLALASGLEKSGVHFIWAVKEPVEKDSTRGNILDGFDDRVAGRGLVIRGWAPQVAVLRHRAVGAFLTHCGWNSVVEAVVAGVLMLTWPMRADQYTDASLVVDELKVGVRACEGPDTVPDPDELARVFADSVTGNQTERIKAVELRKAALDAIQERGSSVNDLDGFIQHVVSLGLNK
Description: as §1, with “After probe purification and MfeI digestion, probe integrity was identified using qPCR. Percent recovery of probe is reported as a heat map (n=8) (specific recovery figures and percent error can be found in FIG. 16). *=p<0.05 vs. no chemical control.” left out

| Compound | recovery of intact probe DNA [1] | OleD substrate quality reported in previous studies [2] | further results |
| --- | --- | --- | --- |
| O=c1cc(-c2ccc(O)cc2)oc2cc(O)cc(O)c12 [II, apigenin] | 42% | slower rate or with less efficiency than with (I) | identification as OleD substrate by LCMS [3]: identified the chemicals as substrates |
| Cc1cc(=O)oc2cc(O)ccc12 [III, 4-methylumbelliferone] | 60% | slower rate or with less efficiency than with (I) | identification as OleD substrate by LCMS [3]: identified the chemicals as substrates |
| O=C(O)Cc1cc(=O)oc2cc(O)ccc12 [IV, 7-hydroxycoumarin-4-acetic acid] | 82% | very weak substrates |  |
| O=c1cc(-c2ccccc2)oc2cc(O)ccc12 [IX, 7-hydroxyflavone] | 39% |  |  |
| O=C(O)c1cc2ccc(O)cc2oc1=O [V, 7-hydroxycoumarin-3-carboxylic acid] | 97% | very weak substrates |  |
| O=c1c(O)c(-c2ccccc2)oc2ccccc12 [VI, 3-hydroxyflavone] | 42% |  |  |
| O=c1cc(-c2ccc(O)cc2)oc2ccccc12 [VII, 4-hydroxyflavone] |  |  | significant loss in protection of the DNA probe [1]: not the case |
| O=c1cc(-c2ccccc2)oc2cccc(O)c12 [VIII, 5-hydroxyflavone] |  |  | significant loss in protection of the DNA probe [1]: not the case |
| O=C(O)c1cccc(O)c1 [X, 3-hydroxybenzoic acid] |  |  | recovery of probe [4]: 33% |
| O=C(O)c1ccc(O)c(O)c1 [XII, 3,4-dihydroxybenzoic acid] |  |  | recovery of probe [5]: 30%; recovery of probe [4]: 40% |
